# Laboratory results from patent US20260071190A1, “SARS CORONAVIRUS 2 R[…] […] GENES, DERIVED FROM GH CLADE SARS CORONAVIRUS 2 OF KOREAN ISOLATE, AND THE PRODUCTION METHOD THEREFOR” (RpexBio, Inc., priority 2022, published 2026).
# Tested on: rSARS-COV-2/YS006_Nluc
# Type: cell-based, SARS coronavirus 2
# Conditions: compared to healthy human-derived IgG control, FIG. 4D
substance,measurement,value
etesevimab: Eli Lilly's recombinant monoclonal antibody for the treatment of SARS coronavirus 2,inhibition of viral entry into cells / reporter expression,inhibit viral entry into cells and reduce reporter expression as its concentration increased
